Laboratory results: the NIST ThermoML archive (doi:10.1016/j.jct.2013.05.019)
Numbers after ± are expanded uncertainties.

Conditions: Liquid; for viscosity: Falling or rolling sphere viscometry; for mass density: Vibrating tube method; for electrical conductivity: Alternating current cell with electrodes

viscosity (293.15 K, 101.33 kPa) [mPa·s]	viscosity (298.15 K, 101.33 kPa) [mPa·s]	viscosity (303.15 K, 101.33 kPa) [mPa·s]	viscosity (308.15 K, 101.33 kPa) [mPa·s]	viscosity (313.15 K, 101.33 kPa) [mPa·s]	viscosity (293.15 K, 101 kPa) [mPa·s]	mass density (293.15 K, 101 kPa) [kg/m3]	electrical conductivity (298.15 K, 101 kPa) [S/m]	viscosity (298.15 K, 101 kPa) [mPa·s]	mass density (298.15 K, 101 kPa) [kg/m3]	viscosity (303.15 K, 101 kPa) [mPa·s]	mass density (303.15 K, 101 kPa) [kg/m3]	viscosity (308.15 K, 101 kPa) [mPa·s]	mass density (308.15 K, 101 kPa) [kg/m3]	viscosity (313.15 K, 101 kPa) [mPa·s]	mass density (313.15 K, 101 kPa) [kg/m3]	Structure (SMILES)
1.002 ± 0.021	0.89 ± 0.019	0.797 ± 0.017	0.718 ± 0.015	0.651 ± 0.014												O [water]
					111.35 ± 3.6	1104.68 ± 0.31	0.867 ± 0.017	89.95 ± 2.5	1101.52 ± 0.31	73.04 ± 1.8	1098.38 ± 0.31	60.25 ± 1.3	1095.26 ± 0.31	50.12 ± 1.1	1092.17 ± 0.3	CCCC[NH3+].O=[N+]([O-])[O-] [n-butylammonium nitrate]
					771.69 ± 71	959.61 ± 0.23	0.021 ± 0.001	546.35 ± 44	956.44 ± 0.23	397.17 ± 28	953.33 ± 0.23	294.59 ± 18	950.15 ± 0.23	222.24 ± 11	946.98 ± 0.23	CC(=O)O.CCCCN [butylammonium acetate]
